Assay: Storage coloration test of Elobixibat, additive and their mixtures (visual observation)
Type: physicochemical
Source text: 1,1-dioxo-3,3-dibutyl-5-phenyl-7-methylthio-8-(N—{(R)-1′-phenyl-1′-[N′-(carboxymethyl)carbamoyl]methyl}carbamoylmethoxy)-2,3,4,5-tetrahydro-1,5-benzothiazepine (Elobixibat) and an additive shown in Table 1 were mixed so that they have a volume ratio of 1:1 based on visual quantities, and thereby, the mixtures according to Reference Examples 3 to 9 were obtained. […] The mixture of each of Reference Examples 3 to 9, only Elobixibat as Reference Example 1, and only Macrogol (polyethylene glycol) 6000 as Reference Example 2 were independently stored in an aluminum bag as an airtight container for 2 weeks under the conditions of 60° C. and 75% relative humidity. After storage, the presence or absence of coloration of the materials of Reference Examples 1 and 2 and the mixtures according to Reference Examples 3 to 9 was visually observed.

Coloration after storage: Before storage → after storage (colour before and after 2 weeks at 60° C. and 75% relative humidity in aluminum bag): white → white
Coloration after storage (stored in aluminum bag (airtight container) for 2 weeks at 60° C. and 75% relative humidity, visually observed): Not observed
SMILES: CCCCC1(CCCC)CN(c2ccccc2)c2cc(SC)c(OCC(=O)N[C@@H](C(=O)NCC(=O)O)c3ccccc3)cc2S(=O)(=O)C1 [Reference Example 1, 1,1-dioxo-3,3-dibutyl-5-phenyl-7-methylthio-8-(N—{(R)-1′-phenyl-1′-[N′-(carboxymethyl)carbamoyl]methyl}carbamoylmethoxy)-2,3,4,5-tetrahydro-1,5-benzothiazepine]

Source: patent US11844822B2, “Solid formulation and method for preventing or reducing coloration thereof” (Elobix AB, priority 2014, dated 2023)
